Key:
[1] = system: normal NK cells expanded with K562-aAPC; assay: percent inhibition of viability; higher = more inhibition; conditions: 72 h, IL-2 2.5 ng/mL
Protocol: (§1)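 Drug sensitivity and resistance testing on K562-aAPC-expanded normal NK cells: 5 concentrations (10-fold steps over a 10,000-fold range), 72 h at 37 °C, viability by CellTiter-Glo normalised to DMSO and benzethonium chloride controls; DSS from the fitted curve.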

[2] = system: normal primary NK cells, pool 1 (3 donors) (IL-2 2.5 ng/mL); assay: drug sensitivity score (DSS) (DSS units); higher = more sensitive; extreme values may be limits of the assay; conditions: 72 h
NK-92 (IL-2 2.5 ng/mL) [3] = assay: as above; conditions: 72 h
IMC-1 (IL-2 20 ng/mL) [4] = assay: as above; conditions: 72 h
DERL-7 (IL-2 2.5 ng/mL) [5] = assay: as above; conditions: 72 h
SNK-6 (IL-2 2.5 ng/mL) [6] = assay: as above; conditions: 72 h
[7] = system: normal primary NK cells, pool 3 (3 donors) (IL-2 2.5 ng/mL); assay: as above; conditions: 72 h
KAI3 (IL-2 2.5 ng/mL) [8] = assay: as above; conditions: 72 h
NK-YS (IL-2 2.5 ng/mL) [9] = assay: as above; conditions: 72 h
[10] = system: normal primary NK cells, pool 1 (3 donors), resting (IL-2 0 ng/mL); assay: as above; conditions: 72 h
NKL (IL-2 2.5 ng/mL) [11] = assay: as above; conditions: 72 h
YT (IL-2 2.5 ng/mL) [12] = assay: as above; conditions: 72 h
KHYG-1 (IL-2 2.5 ng/mL) [13] = assay: as above; conditions: 72 h
[14] = system: normal primary NK cells, pool 2 (3 donors) (IL-2 2.5 ng/mL); assay: as above; conditions: 72 h
[15] = system: normal primary NK cells, pool 1 (3 donors) (IL-2 2.5 ng/mL); assay: percent inhibition of viability; higher = more inhibition; conditions: 72 h
NK-92 (IL-2 2.5 ng/mL) [16] = assay: as above; conditions: 72 h
IMC-1 (IL-2 20 ng/mL) [17] = assay: as above; conditions: 72 h
DERL-7 (IL-2 2.5 ng/mL) [18] = assay: as above; conditions: 72 h
SNK-6 (IL-2 2.5 ng/mL) [19] = assay: as above; conditions: 72 h
[20] = system: normal primary NK cells, pool 3 (3 donors) (IL-2 2.5 ng/mL); assay: as above; conditions: 72 h
KAI3 (IL-2 2.5 ng/mL) [21] = assay: as above; conditions: 72 h
NK-YS (IL-2 2.5 ng/mL) [22] = assay: as above; conditions: 72 h
[23] = system: normal primary NK cells, pool 1 (3 donors), resting (IL-2 0 ng/mL); assay: as above; conditions: 72 h
NKL (IL-2 2.5 ng/mL) [24] = assay: as above; conditions: 72 h
YT (IL-2 2.5 ng/mL) [25] = assay: as above; conditions: 72 h
KHYG-1 (IL-2 2.5 ng/mL) [26] = assay: as above; conditions: 72 h
[27] = system: normal primary NK cells, pool 2 (3 donors) (IL-2 2.5 ng/mL); assay: as above; conditions: 72 h
[28] = system: normal NK cells expanded with K562-aAPC; assay: drug sensitivity score (DSS) (DSS units); higher = more sensitive; extreme values may be limits of the assay; conditions: 72 h; IL-2 2.5 ng/mL
Protocol: as §1

CN(C[C@@H]1COCCO1)S(=O)(=O)Nc1ccc2ccc3ncc(-c4cnn(C)c4)cc3c(=O)c2c1 [MK-2461] (max concentration tested 10000 nM)
percent inhibition of viability [%]
Conditions | 1 nM | 10 nM | 100 nM | 1000 nM | 10000 nM
DERL-7 (IL-2 2.5 ng/mL) [18] | -6.68 | -3.14 | -6.19 | 10.2 | 52.8
IMC-1 (IL-2 20 ng/mL) [17] | 1.71 | -0.63 | 3.27 | -5.3 | -50.1
KAI3 (IL-2 2.5 ng/mL) [21] | -1.76 | -2.96 | 7.38 | 21.6 | 44.7
KHYG-1 (IL-2 2.5 ng/mL) [26] | -0.18 | -3.51 | -0.87 | 6.75 | 44.4
NK-92 (IL-2 2.5 ng/mL) [16] | 1.01 | -5.16 | -10.7 | 7.81 | 9.19
NK-YS (IL-2 2.5 ng/mL) [22] | 0.46 | -3.34 | -0.08 | 3.95 | 33.3
NKL (IL-2 2.5 ng/mL) [24] | -3.44 | -1.59 | -12 | 8.79 | 30
SNK-6 (IL-2 2.5 ng/mL) [19] | 0.33 | -7.16 | -3.05 | -24.8 | 19.4
YT (IL-2 2.5 ng/mL) [25] | -0.04 | -0.58 | -1.61 | 0.19 | 10.3
[1] | 2.16 | -3.15 | -5.97 | -1.83 | 29.5
[15] | -3.44 | -9.95 | -8.02 | -7.44 | 21.8
[20] | -12.9 | -6.11 | -6.1 | -12.5 | -1.21
[23] | -17.8 | -18.1 | -32.3 | -29.1 | 26.9
[27] | -7.85 | -3.63 | -2.59 | -2.71 | 16.6

Conditions | drug sensitivity score
DERL-7 (IL-2 2.5 ng/mL) [5] | 4.49
IMC-1 (IL-2 20 ng/mL) [4] | 0
KAI3 (IL-2 2.5 ng/mL) [8] | 4.68
KHYG-1 (IL-2 2.5 ng/mL) [13] | 3.41
NK-92 (IL-2 2.5 ng/mL) [3] | 0
NK-YS (IL-2 2.5 ng/mL) [9] | 2.18
NKL (IL-2 2.5 ng/mL) [11] | 2.56
SNK-6 (IL-2 2.5 ng/mL) [6] | 0.21
YT (IL-2 2.5 ng/mL) [12] | 0
[2] | 0.46
[7] | 0
[10] | 0.54
[14] | 0.24
[28] | 1.13
